The results in this text go back to patent US6656971B2, “Trisubstituted carbocyclic cyclophilin binding compounds and their use” (Guilford Pharmaceuticals Inc., priority 2001, dated 2003).

The target in test [1] is T1, human recombinant CyPA (Homo sapiens, UniProt P62937). Briefly: Rotamase (PPIase) inhibition, chymotrypsin-coupled cuvette assay, human recombinant CyPA. In kind it is biochemical. The conditions noted are these: Table A, value without asterisk: human recombinant CyPA. An excerpt: A number of substrates for rotamase are known in the art or can be derived from those known. Typically, the substrate contacts a sample containing a protein with rotamase activity and the conversion of the substrate is detected after a period of time. The method for detecting conversion of the substrate will vary with the particular substrate chosen. One method has been termed the Ki test (See Harding, et al., Nature, 341:758-760 (1989); and Holt et al., J. Am. Chem. Soc., 115:9923-9938). The cis-trans isomerization of an alanine-proline bond in a model substrate, N-succinyl-Ala-Ala-Pro-Phe-p-nitroanilide (SEQ ID NO: 1), is monitored spectrophotometrically in a chymotrypsin-coupled assay. The action of chymotrypsin releases p-nitroaniline from only the trans form of the substrate. The amount of p-nitroaniline can be monitored in a spectrophotometer, for example. Other methods of detecting the presence of p-nitroaniline can also be used. The inhibition of this reaction caused by different concentrations of inhibitor is determined and the data are analyzed as a change in first-order rate constant as a function of inhibitor concentration, which yields the Ki value.
The following were added to a plastic cuvette: 950 μl of ice cold assay buffer (25 mM HEPES, pH 7.8, 100 mM NaCl), 10 μL of CyP A (2.5 μM in 10 mM Tris-Cl pH 7.5, 100 mM NaCl, 1 mM dithiothreitol), 25 μL of chymotrypsin (50 mg/ml in 1 mM HCl), and 10 μL of test compound, at various concentrations, in dimethyl sulfoxide. The reaction was initiated by the addition of 5 μL of substrate (succinyl-Ala-Phe-Pro-Phe-para-nitroanilide (SEQ ID NO: 1), 5 mg/mL in 470 mM LiCl in trifluoroethanol). The absorbance at 390 nm versus time was monitored for 90 seconds using a spectrophotometer and the rate constants were determined from the absorbance versus time data files.
The IC50 values which were obtained for representative compounds are given in the following Table A, and refer to the concentration that inhibits 50% of the rotamase activity in a sample.
(§1) The Cyclophilin utilized was a human recombinant CyPA, [Yoo et al., J. Mol. Biol., 269 (1997) 780-95].

In test [2] the target is T1, human recombinant CyPA. Description: Semiautomated microtiter plate assay of rotamase activity inhibition, human recombinant CyPA. The format is biochemical. The conditions noted are these: Table B, value without asterisk: human recombinant CyPA. How it is done:
(§2) Rotamase inhibition was determined using a semiautomated microtiter plate assay modification of the above described assay [see Küllertz et al., Clin. Chem. 44, 502-508 (1998)]. All dilutions of CyPA, peptide substrate, and chymotrypsin were made in 35 mM ice-cold HEPES buffer. Fifty μL of CyPA solution is added to 50 μL of the peptide substrate solution (Phe-Pro-Phe p-nitroanilide, 0.16 mg/ml) in a glass microtiter well plate (the concentration of human recombinant CyP being adjusted so that the reaction rate is increased by a factor of 3 as compared to an uncatalyzed control reaction wherein the peptide substrate is degraded by chymotrypsin alone, in the absence of CyPA and test compound). Using a Beckman Multimek™ 96 automated 96-channel pipettor, 5 μL of test compound solution, or a DMSO blank, were added to each well for a 30 minute preincubation at 4° C. One hundred μL of chymotrypsin solution (1 mg/mL) were added to each well and the absorbance at 390 nm versus time was monitored for 9-10 minutes using a BioRad Ultramark plate reader maintained at 4° C. and the rate constants were determined from the absorbance versus time data files.
(§3) IC50 values which were obtained for representative compounds are presented in the following Table B. The cyclophilin utilized was a human recombinant CyPA. […] While CyP A was used in these examples, other CyP proteins can be substituted.

In test [3] the target is T2, recombinant rat CyPA-GST fusion protein (Rattus norvegicus, UniProt P10111).
T2 construct: made in house; host or cells: E. coli BL21
Briefly: Rotamase (PPIase) inhibition, chymotrypsin-coupled cuvette assay, rat CyPA-GST fusion protein. In kind it is biochemical. As to conditions: Table A, value with asterisk: recombinant rat CyPA-GST fusion protein.

The target of test [4] is T2, recombinant rat CyPA-GST fusion protein. Briefly: Semiautomated microtiter plate assay of rotamase activity inhibition, rat CyPA-GST fusion protein. In kind it is biochemical. As to conditions: Table B, value with asterisk: recombinant rat CyPA-GST fusion protein. As to the method:
as §1
The resulting fragment (573 base pairs) was cloned into pCRII and amplified. The CyP sequence was cut out with Sma1 and EcoR1 and cloned into the Sma1/EcoR1 sites in pGEX2TK (Pharmacia). This plasmid was transformed into BL21 E. coli cells for expression of the GST-CyPA fusion protein.
as §2, §3

Test [5] concerns nigrostriatal dopaminergic fibers. Briefly: MPTP-lesioned mouse model of Parkinson's disease, striatal TH fiber density. In kind it is in vivo, CD1 albino mice. The conditions noted are these: for % protection of striatal tyrosine hydroxylase-immunoreactive fibres: 10 mg/kg s.c. once daily days 1-5, one hour prior to MPTP, perfused day seven.

T2 sequence (P10111 2-164): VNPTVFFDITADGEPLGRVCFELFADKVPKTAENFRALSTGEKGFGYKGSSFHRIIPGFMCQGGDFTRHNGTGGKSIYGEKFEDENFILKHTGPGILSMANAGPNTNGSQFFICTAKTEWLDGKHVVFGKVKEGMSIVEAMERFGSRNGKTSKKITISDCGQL
T1 sequence (P62937 whole entry): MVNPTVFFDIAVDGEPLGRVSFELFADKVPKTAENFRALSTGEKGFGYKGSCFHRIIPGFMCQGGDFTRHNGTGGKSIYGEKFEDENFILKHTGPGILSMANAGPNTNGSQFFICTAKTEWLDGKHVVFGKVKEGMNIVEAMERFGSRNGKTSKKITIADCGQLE

As for `O=C(Nc1cc(Cl)cc(Cl)c1)c1cc(COc2ccc(Cl)c(Cl)c2)cc(C(=O)Nc2cc(Cl)cc(Cl)c2)c1` [Compound 20, 1-[(3,4-dichlorophenyl)oxymethyl]-3,5-bis-[(3,5-dichlorophenyl)aminocarbonyl]benzene], the IC50 in test [1] was determined as 153 nM; in test [2], 499 nM.
For `O=C(Nc1ccc(Cl)c(C(F)(F)F)c1)c1cccc(COc2cc(C(=O)Nc3ccc(Cl)c(C(F)(F)F)c3)cc(C(=O)Nc3ccc(Cl)c(C(F)(F)F)c3)c2)c1` [Compound 37, 3-{[(3-Trifluoromethyl-4-chlorophenyl)aminocarbonyl]benzyloxy}-1,5-bis-[(3-trifluoromethyl-4-chlorophenyl)aminocarbonyl]benzene], the half-inhibitory concentration (IC50) in test [1] amounted to 1200 nM.
With `O=C(NNC(=O)c1cc(O)cc(NC(=O)c2cccc(C(F)(F)F)c2)c1)c1ccccc1` [Compound 15, 1-Benzoyl-2-{3-[(3-trifluoromethyl)phenyl]carbonylamino-5-hydroxy}benzoylhydrazine], the IC50 was determined as 18700 nM in test [1] and 9100 nM in test [2].
`S=C(Nc1cc(Cl)cc(Cl)c1)Nc1cc(NC(=S)Nc2cc(Cl)cc(Cl)c2)cc(Nc2ccccn2)c1` [Compound 13]: the IC50 in test [1] worked out at 456 nM; in test [2] it was 1370 nM.
For `O=C(Nc1cc(Cl)c(Cl)c(Cl)c1)c1cc(OCc2ccc(Cl)c(Cl)c2)cc(C(=O)Nc2cc(Cl)c(Cl)c(Cl)c2)c1` [Compound 32, 1-(3,4-dichlorobenzyloxy)-3,5-bis-[(3,4,5-trichlorophenyl)aminocarbonyl]benzene], the IC50 in test [3] is 102 nM; in test [4], 91.7 nM; in test [1], 164 nM; in test [2], 51.5 nM.
Turning to `O=C(Nc1cccc(C(F)(F)F)c1)c1cc(/C=C/c2ccc3ccccc3c2)cc(C(=O)Nc2cccc(C(F)(F)F)c2)c1` [Compound 25, (5-(2-(2-naphthyl)vinyl)-3-{N-[3-(trifluoromethyl)phenyl]carbamoyl}phenyl)-N-[3-(trifluoromethyl)phenyl]formamide], the IC50 in test [1] was 297 nM; in test [2], 2030 nM.
Turning to `S=C(Nc1cc(Cl)cc(Cl)c1)Nc1ccc(N2CCCCC2)c(NC(=S)Nc2cc(Cl)cc(Cl)c2)c1` [Compound 44], the half-maximal inhibitory concentration (IC50) in test [3] was determined as 374 nM. In addition, the “% protection of striatal tyrosine hydroxylase-immunoreactive fibres” value in test [5] is listed as 25.1%.
In the case of `CN(C)c1ccc(Nc2ccc(NC(=S)Nc3cc(Cl)cc(Cl)c3)cc2NC(=S)Nc2cc(Cl)cc(Cl)c2)cc1` [Compound 35, [(3,5-dichlorophenyl)amino]{[5-({[(3,5-dichlorophenyl)amino]thioxomethyl}amino)-2-{[4-(dimethylamino)phenyl]amino}phenyl]amino}methane-1-thione], the IC50 in test [3] was found to be 1310 nM; in test [4] it was 353 nM.
Take `O=C(Nc1ccc(Cl)c(Cl)c1)c1cccc(COc2cc(C(=O)Nc3ccc(Cl)c(Cl)c3)cc(C(=O)Nc3ccc(Cl)c(Cl)c3)c2)c1` [Compound 38, 3-{[(3,4-dichlorophenyl)aminocarbonyl]benzyloxy}-1,5-bis-[(3,4-dichloro-phenyl)aminocarbonyl]benzene]: the IC50 in test [1] was determined as 736 nM.
For `O=C(Nc1cccc(C(F)(F)F)c1)c1cc(OCc2ccc3ccccc3c2)cc(C(=O)Nc2cccc(C(F)(F)F)c2)c1` [Compound 42, 1,3-Bis[(3-trifluoromethylphenyl)aminocarbonyl]-5-[(2-naphthyl)methyloxy]benzene], the IC50 in test [3] was 230 nM. The “% protection of striatal tyrosine hydroxylase-immunoreactive fibres” value in test [5] is listed as 44.1%. The “striatal TH fiber density” value in test [5] (regeneration protocol: MPTP days 1-5, compound once daily on days 8-12, perfused day 18) came out at 88%.
Consider “(3-bromo-5-{N-[3-(trifluoromethyl)phenyl]carbamoyl}phenyl)-N-[3-(trifluoromethyl) phenyl]formamide [Compound 26]”, for which the IC50 in test [1] was determined as 909 nM; in test [2], 2540 nM.
`COc1ccc(NC(=S)NC(=O)c2ccccc2)cc1COc1cc(Cl)cc(Cl)c1` [Compound 46, 1-[3-(3,5-Dichlorophenoxy)methyl-4-methoxyphenyl]-3-benzoylthiourea]: the IC50 in test [3] came to 3770 nM.
For `Nc1cc(CN2C(=O)c3ccccc3C2=O)cc(NC(=S)Nc2cc(Cl)cc(Cl)c2)c1` [Compound 31, 2-{[3-amino-5-({[(3,5-dichlorophenyl)amino]thioxomethyl}amino)phenyl]methyl}isoindoline-1,3-dione], the 50% inhibitory concentration (IC50) came out at 3530 nM in test [3], 6940 nM in test [4] and 1580 nM in test [1].
Turning to `O=C(Nc1cccc([N+](=O)[O-])c1)c1ccc(Br)c(C(=O)Nc2cccc([N+](=O)[O-])c2)c1` [Compound 41, {2-bromo-5-[N-(3-nitrophenyl)carbamoyl]phenyl}-N-(3-nitrophenyl) formamide], the IC50 in test [1] is 1370 nM.
Take `COc1ccc(NC(=O)Nc2cc(Cl)cc(Cl)c2)cc1OCc1cc(Cl)cc(Cl)c1` [Compound 28, 1-(3,5-Dichlorophenyl)-3-[3-(3,5-dichlorobenzyloxy)-4-methoxyphenyl]urea]: the IC50 in test [3] was 914 nM.
As to `N#Cc1ccccc1-c1ccc(COc2cc(C(=O)NCCc3ccc(Cl)c(Cl)c3)cc(C(=O)NCCc3ccc(Cl)c(Cl)c3)c2)cc1` [Compound 21, 1-[4-(2-cyanophenyl)benzy]loxy-3,5-bis{2-[(3,4-dichlorophenyl)ethyl]aminocarbonyl}benzene], the half-inhibitory concentration (IC50) worked out at 490 nM in test [1] and 1730 nM in test [2].
As to `COc1ccc(NC(=O)c2cccc3ccccc23)cc1OCc1cccc2ccccc12` [Compound 47, N-[4-methoxy-3-(naphthylmethoxy)phenyl]naphthylformamide], the IC50 in test [3] turned out to be 1220 nM.
Still for that read-out and setting: the figure for `O=C(Nc1ccc(Cl)c(C(=O)c2ccccc2)c1)c1cc(Cl)cc(Cl)c1` [Compound 51, (3,5-Dichlorophenyl)-N-[4-chloro-3-(phenylcarbonyl)phenyl]formamide] is 1550 nM; for `O=C(Nc1cc(Cl)cc(Cl)c1)Nc1ccc(Br)c(N(S(=O)(=O)c2cc(Cl)cc(Cl)c2)S(=O)(=O)c2cc(Cl)cc(Cl)c2)c1` [Compound 29, N-(3-{bis[(3,5-dichlorophenyl)sulfonyl]amino}-4-bromophenyl)[(3,5-dichlorophenyl)amino]formamide] it is 10000 nM.

Broadly, the IC50 is the concentration at which inhibition is half-maximal.
